Results as given in PubChem BioAssay (NCI).
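Step 1: Grow cells in 96-well plates. Step 2: Expose to compound for 48 hours at 5 concentrations. Step 3: Interpolate endpoints linearly; if unreached, use highest concentration. TGI: concentration producing complete growth inhibition.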

Key:
Test in all cases: NCI-60 cell line screen, 48 h
[1] = tested on: OVCAR-4 ovarian
[2] = tested on: PC-3 prostate
[3] = tested on: HL-60(TB) leukemia
[4] = tested on: OVCAR-8 ovarian
[5] = tested on: A549 NSCLC
[6] = tested on: NCI/ADR-RES ovarian
[7] = tested on: LOX IMVI melanoma
[8] = tested on: CCRF-CEM leukemia
[9] = tested on: HCC-2998 colon
[10] = tested on: EKVX NSCLC
[11] = tested on: NCI-H23 lung

Compound | TGI [1] [µM] | TGI [2] [µM] | TGI [3] [µM] | TGI [4] [µM] | TGI [5] [µM] | TGI [6] [µM] | TGI [7] [µM] | TGI [8] [µM] | TGI [9] [µM] | TGI [10] [µM] | TGI [11] [µM]
C/C(=N\NC(=S)NCCCNC(=S)N/N=C(\C)c1ccccn1)c1ccccn1 | > 54 | > 91.5 | > 30.2 | 10.9 | > 49.8 | 8.19 | > 51.2 | 9.4 | > 59.1 | > 63.9 | > 54.4
COC(=O)C(CCSC)NC(=O)Cc1ccc(C(=O)c2ccccc2)cc1 (centres undefined) | > 100 | > 100 | > 100 | > 100 | > 100 | 91.5 | > 100 | > 100 | > 100 | > 100 | > 100
Nn1c(Cc2ccc([N+](=O)[O-])cc2)n[nH]c1=O | > 100 | > 100 | > 100 | > 100 | > 100 | > 100 | > 100 | > 100 | > 100 | > 100 | > 100
O=C1CC(c2ccccc2)n2cccc21 (centres undefined) | > 100 | > 100 | > 100 | > 100 | > 100 | > 100 | > 100 | > 100 | > 100 | > 100 | > 100
CCOC(=O)C(SCCO)C(C(=O)OCC)n1ccc(=O)[nH]c1=O (centres undefined) | > 86.5 | > 100 | 12 | > 57.4 | > 100 | > 69.4 | > 43.8 | 10.5 | > 100 | > 100 | > 100
C=C(C)[C@@H]1CCC2=C[C@H](OC2=O)[C@@]2(C)C[C@@H]2C2=CC(C)=C(O2)[C@H]1O | > 75 | > 75 | > 75 | > 75 | > 75 | > 75 | > 75 | > 75 | > 75 | > 75 | > 75
CCCCCCCCCCNC(=O)CCC(NC(=O)c1ccc(N(C)Cc2cnc3nc(N)nc(N)c3n2)cc1)C(=O)NCCCCCCCCCC (centres undefined) | > 45.4 | 37.8 | > 25.3 | 25.5 | > 100 | > 100 | 5.81 | 5.9 | 48.6 | > 78.3 | 54.4
COc1ccc(SCc2cc(OCc3ccccc3)c(OCc3ccccc3)c(OCc3ccccc3)c2)cc1 | 3.25 | 3.37 | 3.44 | 3.59 | 3.71 | 3.38 | 2.91 | 3.49 | 2.85 | 4.37 | 3.35
CO/N=C(\C)CCC#Cc1ccccc1C(=O)OC | > 10 | > 10 | > 10 | > 10 | > 10 | > 10 | > 10 | > 10 | > 10 | > 10 | > 10
Nc1onc2c1Cc1c(noc1N)-c1ccccc1-2 | > 100 | > 100 | 49.7 | > 100 | > 100 | > 100 | > 100 | > 100 | > 100 | 66.1 | > 100
C=C(Br)CNC(=O)CCC(=O)NCC(=C)Br | > 100 | > 100 | > 100 | > 100 | > 100 | > 100 | > 100 | > 100 | > 100 | > 100 | > 100
CCC(=O)Nc1ccc(N2C(=O)C(Cl)C2c2ccc(SC)cc2)cc1 (centres undefined) | > 100 | > 100 | > 100 | > 100 | > 100 | > 100 | > 100 | > 100 | 96.9 | > 100 | > 100
Cc1ccc(NC(=O)c2cc(S(=O)(=O)Nc3nc4ncccc4[nH]3)c(SSc3cc(Cl)c(C(=O)Nc4ccc(C)cc4)cc3S(=O)(=O)Nc3nc4ncccc4[nH]3)cc2Cl)cc1 | > 100 | > 100 | > 100 | > 100 | > 100 | > 100 | > 100 | > 100 | > 100 | > 100 | > 100
N#Cc1cnc(N)nc1NCC1(CO)CC(CCc2ccccc2)C1 (centres undefined) | > 100 | > 100 | > 100 | > 100 | > 100 | > 100 | > 100 | > 100 | > 100 | > 100 | > 100
